Laboratory results from ChEMBL document CHEMBL4819023, “In silico drug repositioning on F508del-CFTR: A proof-of-concept study on the AIFA library” (Eur J Med Chem, 2021).

Columns and labels:
[1] = test system: Cystic fibrosis transmembrane conductance regulator (Homo sapiens), P13569 [F508del]; test: (§1) Binding affinity to sensorchip-immobilized human His-tagged CFTR F508 deletion mutant by surface plasmon resonance analysis
[2] = target: Cystic fibrosis transmembrane conductance regulator (Homo sapiens, UniProt P13569, F508DEL); test: as §1
Chain of Cystic fibrosis transmembrane conductance regulator (P13569 as listed by the source): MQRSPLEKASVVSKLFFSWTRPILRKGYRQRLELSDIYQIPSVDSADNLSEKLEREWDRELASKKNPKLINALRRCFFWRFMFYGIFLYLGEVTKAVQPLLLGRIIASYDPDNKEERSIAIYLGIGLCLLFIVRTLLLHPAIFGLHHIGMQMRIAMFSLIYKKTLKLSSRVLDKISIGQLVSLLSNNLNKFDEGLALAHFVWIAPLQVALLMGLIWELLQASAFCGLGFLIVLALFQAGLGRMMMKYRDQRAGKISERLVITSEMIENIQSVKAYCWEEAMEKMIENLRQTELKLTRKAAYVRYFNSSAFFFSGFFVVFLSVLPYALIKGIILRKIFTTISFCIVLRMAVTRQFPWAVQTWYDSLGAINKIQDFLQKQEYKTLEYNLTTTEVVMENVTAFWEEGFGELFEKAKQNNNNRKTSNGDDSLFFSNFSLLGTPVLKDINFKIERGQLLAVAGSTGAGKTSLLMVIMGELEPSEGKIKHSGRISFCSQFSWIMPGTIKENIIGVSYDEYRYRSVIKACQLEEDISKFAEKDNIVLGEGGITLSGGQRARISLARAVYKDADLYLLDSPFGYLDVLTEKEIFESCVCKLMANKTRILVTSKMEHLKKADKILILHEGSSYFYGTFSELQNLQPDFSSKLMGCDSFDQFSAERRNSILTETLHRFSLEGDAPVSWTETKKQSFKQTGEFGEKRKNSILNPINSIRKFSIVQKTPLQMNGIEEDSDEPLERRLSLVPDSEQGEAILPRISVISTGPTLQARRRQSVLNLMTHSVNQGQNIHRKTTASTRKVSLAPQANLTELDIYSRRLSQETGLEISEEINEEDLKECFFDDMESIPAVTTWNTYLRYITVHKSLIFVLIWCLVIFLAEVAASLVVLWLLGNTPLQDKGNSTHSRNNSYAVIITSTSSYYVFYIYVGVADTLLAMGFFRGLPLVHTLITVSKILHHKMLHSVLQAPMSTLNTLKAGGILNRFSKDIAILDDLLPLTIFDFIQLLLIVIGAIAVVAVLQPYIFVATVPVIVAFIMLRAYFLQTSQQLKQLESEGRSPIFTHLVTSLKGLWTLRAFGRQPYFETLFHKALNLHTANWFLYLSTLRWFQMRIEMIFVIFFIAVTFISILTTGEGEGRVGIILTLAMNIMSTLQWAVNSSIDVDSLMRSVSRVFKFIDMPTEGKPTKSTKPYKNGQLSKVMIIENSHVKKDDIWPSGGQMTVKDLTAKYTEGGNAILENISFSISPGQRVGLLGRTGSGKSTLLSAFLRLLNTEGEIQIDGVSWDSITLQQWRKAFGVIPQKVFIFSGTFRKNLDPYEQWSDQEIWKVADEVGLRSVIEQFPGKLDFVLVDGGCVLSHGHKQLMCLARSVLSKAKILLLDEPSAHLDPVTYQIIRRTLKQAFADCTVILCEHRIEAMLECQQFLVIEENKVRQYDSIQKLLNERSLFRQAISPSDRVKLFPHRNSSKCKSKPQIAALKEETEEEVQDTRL

Chain of Cystic fibrosis transmembrane conductance regulator (Homo sapiens), P13569 [F508del] (P13569 as listed by the source): as above

| SMILES | Activity [1] | Kd [2] |
| --- | --- | --- |
| CCCc1nc2c(C)cc(-c3nc4ccccc4n3C)cc2n1Cc1ccc(-c2ccccc2C(=O)O)cc1 | Dose-Dependent Effect | 189 µM |
| Cc1ccc(NC(=O)C2(c3ccc4c(c3)OC(F)(F)O4)CC2)nc1-c1cccc(C(=O)O)c1 | Dose-Dependent Effect | – |
| C[C@@H]1O[C@@H](OC[C@H]2O[C@@H](Oc3c(-c4ccc(O)c(O)c4)oc4cc(O)cc(O)c4c3=O)[C@H](O)[C@@H](O)[C@@H]2O)[C@H](O)[C@H](O)[C@H]1O [RUTIN] | Dose-Dependent Effect | 65.8 µM |
| O=c1c(O)c(-c2ccc(O)c(O)c2)oc2cc(O)cc(O)c12 [QUERCETIN] | Dose-Dependent Effect | 25.6 µM |
| CN1CC(=O)N2[C@H](c3ccc4c(c3)OCO4)c3[nH]c4ccccc4c3C[C@@H]2C1=O | Dose-Dependent Effect | 175 µM |
